Legend:
[1] = test system: cell line resistant to the ALK inhibitor; assay: Evaluation of antitumor efficacy of statin-based drugs; conditions: cell line resistant to the ALK inhibitor versus parental
From the text: The results are illustrated in FIG. 4A.

[2] = test system: CR pool, CR #1, and CR #3 cell lines; assay: Cell proliferation after adding mevalonate pathway byproducts to cerivastatin-treated cells; type: cell-based; conditions: CR #1, CR #3, byproduct added after cerivastatin treatment
From the text: A statin-based drug is a suppressor of HMG-CoA reductase which is an enzyme converting 3-hydroxy-3-methylglutaryl coenzyme A (HMG-CoA) into mevalonic acid in the mevalonate pathway, and is known as a cholesterol-lowering agent, but is known to affect various intracellular signaling processes by suppressing the production of isoprenoids (Farnesyl pyrophosphate; […] GGPP) acting as a substrate for isoprenylation of a target protein among final byproducts of the mevalonate pathway in addition to cholesterol. Thus, after the present research team treated H3122 parental, CR pool, CR #1, and CR #3 cell lines with cerivastatin in order to see which one of the byproducts mediated by the mevalonate pathway is involved in acquiring resistance to an ALK inhibitor, the proliferation of cells was identified after mevalonate, GGPP, FPP, and squalene, which are byproducts of each step, were each added. The results are illustrated in FIG. 6A.

[3] = test system: p21, cleaved PARP, and cleaved caspase 3; assay: Western blot of p21 and apoptosis-related proteins, crizotinib-resistant cell lines; type: cell-based
YAP = assay: Western blot of YAP phosphorylation, crizotinib-resistant cell line; type: cell-based
From the text: YAP is accumulated in the nucleus to form a complex with TEAD when phosphorylation is suppressed, and is known as an oncogene which promotes the excessive proliferation of cancer cells and the metastasis of cancer by inducing the expression of a gene associated with cancer. In addition, YAP as a transcription factor has been reported to be involved even in the expression of EGFR and an EGFR ligand. Recently, it has been reported that the mevalonate pathway which is an important mechanism in cancer cell metabolism regulates YAP activity, and particularly, geranylgeranylation may directly affect YAP activity. […] The results are illustrated in FIG. 7. FIGS. 7A and 7B identify the expression pattern of YAP when GGPP and […] are treated, respectively through a western blot, and FIG. 7C illustrates whether YAP moves into the nucleus through an immunocytochemistry analysis.

H3122 CR pool cells = assay: FDA approved drug library growth inhibition selection, resistant cells; type: cell-based; conditions: 1 μM for 72 hours
H3122 parental cells = assay: FDA approved drug library growth inhibition selection, parental cells; type: cell-based; conditions: 1 μM for 72 hours
AKT and ERK = assay: Immunoblot of lower and bypass signaling pathway of ALK, ceritinib-resistant cell line; type: cell-based; conditions: cell line resistant to ceritinib
[4] = test system: cell line that has acquired resistance to crizotinib; assay: Cell survival rate of cell line that has acquired resistance to crizotinib after ALK/EGFR inhibitor treatment; type: cell-based; conditions: crizotinib-resistant H3122 cell line
Method: Subsequently, studies on the mechanism of acquiring resistance to an ALK inhibitor in the Experimental Examples were carried out by representatively using CR pool, CR #1, and CR #3.

EGFR = assay: Western blot of EGFR activity after verteporfin; type: cell-based; conditions: cell line that has acquired resistance to an ALK inhibitor; pretreatment with verteporfin
From the text: The results are illustrated in FIG. 12.

vimentin = assay: Western blot of vimentin expression; type: cell-based; conditions: cell lines resistant to an ALK inhibitor
From the text: The results are illustrated in FIG. 13.

[5] = test system: p21, cleaved caspase 3, PARP, YAP; assay: Western blot of p21, cleaved caspase 3, PARP and YAP, ceritinib-resistant cell line; type: cell-based; conditions: cell line resistant to ceritinib
[6] = added to cerivastatin-treated cells

CC(C)c1nc(N(C)S(C)(=O)=O)nc(-c2ccc(F)cc2)c1/C=C/[C@@H](O)C[C@@H](O)CC(=O)O [rosuvastatin]
antitumor efficacies [1]: specifically exhibited antitumor efficacies against a cell line resistant to the ALK inhibitor

CC(C)=CCC/C(C)=C/CC/C(C)=C/COP(=O)(O)OP(=O)(O)O [FPP, Farnesyl pyrophosphate]
proliferation of cells suppressed by cerivastatin [2]: did not have any effect

CC(O)(CCO)CC(=O)O (stereo not shown) [mevalonate]
proliferation of cells suppressed by cerivastatin [2]: restored

CC(C)=CCC/C(C)=C/CC/C(C)=C/CC/C=C(\C)CC/C=C(\C)CCC=C(C)C [squalene]
proliferation of cells suppressed by cerivastatin [2]: did not have any effect

CC(C)c1c(C(=O)Nc2ccccc2)c(-c2ccccc2)c(-c2ccc(F)cc2)n1CC[C@@H](O)C[C@@H](O)CC(=O)O [atorvastatin]
antitumor efficacies [1]: specifically exhibited antitumor efficacies against a cell line resistant to the ALK inhibitor

CC(C)=CCC/C(C)=C/CC/C(C)=C/CC/C(C)=C/COP(=O)(O)OP(=O)(O)O [GGPP, Geranylgeranyl pyrophosphate]
proliferation of cells suppressed by cerivastatin [2]: restored
expression of cleaved PARP increased by cerivastatin [3, 6]: again decreased
expression of cleaved caspase 3 increased by cerivastatin [3, 6]: again decreased
expression of p21 increased by cerivastatin [3, 6]: again decreased
phosphorylation of YAP (YAP; added together with cerivastatin): again reduced

CC(=O)O[C@@]12CO[C@@H]1C[C@H](O)[C@@]1(C)C(=O)[C@H](O)C3=C(C)[C@@H](OC(=O)[C@H](O)[C@@H](NC(=O)OC(C)(C)C)c4ccccc4)C[C@@](O)([C@@H](OC(=O)c4ccccc4)[C@H]21)C3(C)C [docetaxel]
growth of cells (H3122 CR pool cells): suppressed the growth
growth of cells (H3122 parental cells): suppressed the growth

Cc1cc(Nc2ncc(Cl)c(Nc3ccccc3S(=O)(=O)C(C)C)n2)c(OC(C)C)cc1C1CCNCC1 [ceritinib]
activity of AKT (AKT and ERK): not suppressed
activity of ERK (AKT and ERK): not suppressed
proliferation of the cell line that had acquired resistance (cell survival rate) [4]: not suppressed

verteporfin
activity of EGFR (EGFR): concentration-dependently suppressed
expression of vimentin (vimentin): clearly decreased

COc1cccc2c1C(=O)c1c(O)c3c(c(O)c1C2=O)C[C@@](O)(C(=O)CO)C[C@@H]3O[C@H]1C[C@H](N)[C@H](O)[C@H](C)O1 [doxorubicin]
growth of cells (H3122 CR pool cells): suppressed the growth
growth of cells (H3122 parental cells): suppressed the growth

COC(=O)[C@H](CC(C)C)NC(=O)c1ccc(NC[C@@H](N)CS)cc1-c1cccc2ccccc12 [GGTI-298]
expression of PARP [5]: concentration-dependently induced
expression of p21 [5]: concentration-dependently induced
expression of cleaved PARP ([3]; western blot, agent alone): concentration dependently induced
expression of cleaved caspase 3 ([3]; western blot, agent alone): concentration dependently induced
expression of p21 ([3]; western blot, agent alone): concentration dependently induced
phosphorylation of YAP (YAP; western blot, agent alone): increasing

Source: patent US10688085B2, “Use of statin-based drug for treatment of EML4-ALK-positive non-small cell lung cancer progressing on ALK inhibitor” (University-Industry Foundation, Yonsei University, priority 2016, dated 2020)
